The text below walks through data of patent publication US11969470B2, “Topiramate compositions and methods of making and using the same” (Regents of the University of Minnesota, priority 2006, dated 2024).

For series [1], the system named is hypoxic-ischemic white matter injury. To be noted: administration post-insult in vivo; cited from earlier work.
A short description of series [2]: Open labeled single dose intravenous [13C]6-TPM/CAPTISOL study in adult patients on maintenance oral topiramate (pharmacokinetics and safety). It counts as in vivo, human. To be noted: for BP changes / EKG changes / Injection site irritation / Other adverse events / Pulse changes / Bioavailability (fraction of oral dose absorbed, AUCoral vs AUCiso) / Clearance / Distribution volume / Half life: IV dose 25 mg. Here is the method: This was an open labeled, single dose study in adult patients on a maintenance dose of topiramate for treatment of either migraines or epilepsy.
Patients were instructed to take their evening topiramate dose the day before the study, then fast until after administration of study drug. On the day of the study, subjects were admitted to University of Minnesota General Clinical Research Center where a neurologist performed a brief physical and neurological exam, vital signs were recorded, an ECG strip was obtained, indwelling catheters were placed in the left and right forearms, and blood samples were drawn for baseline laboratory tests.
A baseline assessment of topiramate toxicity was performed using the following criteria: ataxia and nystagmus: 0=none, 1=mild, 2=severe. As used herein, “ataxia” is classified as “mild”—for unsteady with tandem gait testing, but able to perform without assistance, or as “severe”—unable to perform tandem gait testing without assistance
The [^13C]6-TPM was administered into the right arm catheter, while blood samples for laboratory tests were drawn from the left arm. Laboratory chemistries included albumin, blood chemistries, kidney and liver function test, and genotyping for drug disposition. A 25 mg [^13C]6-TPM dose was then infused over 10-20 minutes. The exact dose administered was determined gravimetrically from the pre- and post-dose syringe weights. At the end of the infusion, patients took their prescribed oral morning dose; thereafter they resumed their regular dosing regimen. Blood samples for pharmacokinetic analysis were taken at 0, 5 minutes, 15 minutes, 30 minutes, 1 hour, 2 hours, 4 hours, 6 hours, 10 hours, 24 hours, 48 hours, 72 hours and 96 hours after intravenous administration of the topiramate. Urine was collected from 0-24 hours for analysis of the parent drug to determine renal clearance. Urine volumes were measured and 15 mL aliquots were stored at −80° C. until analysis.
Topiramate was detected using a LC/MS method employing the electrospray ionization (ESI) and negative scan mode. This method is designed to measure both unlabeled topiramate and the stable-isotope topiramate using a negative ESI and SIM mode of liquid chromatograph mass spectrometer. The analytes were separated using ZORBAX® LC8/LC18 and a mobile phase consisting of ammonium acetate buffer and methanol. The data generated using CHEMSTATION® software (Agilent) and quantified using deuterated topiramate (“TPM-d12”, internal standard). Patient samples were run along with a 7-concentration standard curve (run in triplicate) and nine quality control samples (low, med and high also run in triplicates), analyzed in human plasma using liquid extraction with methyl-tert-butylether and negative ion electrospray mass spectrometry. The quantitative analysis was performed using selective ion monitoring mode for topiramate at m/z=338 and m/z=350 for TPM-d12 in the negative mode. The unlabeled topiramate calibration curve ranged from 0.05 μg/mL to 10 μg/mL.
Both stable-isotope topiramate and non-labeled topiramate concentration-time data was analyzed by non-compartmental methods to obtain AUC, clearance, half-life, and volume of distribution data. The AUC was determined by the trapezoidal rule and the terminal half-life was determined by linear regression of the terminal phase on log concentration vs. time plots. WINNONLIN® (Tripos L.L.P.), a pharmacokinetic data analysis package was used to fit the data to standard pharmacokinetic models (one and two-compartment models).
Elimination rate constant (kel): kel was determined by the best fit of the post-infusion isotope concentration-time data.
AUCiso=AUC0-96 hrs+Cp96 hrs/kel
Distribution Volume at Steady State (Vdss): Vdss was determined as follows: Vdss=Doseiso*AUMC/AUC where AUMC is the area under the first moment curve, and calculated by determining the area under the curve of a plot of the product of concentration and time versus time from zero time to infinity. […]

The nature of series [3]: Topiramate phase solubility study with the cyclodextrin CAPTISOL
Experimental: A phase solubility study was conducted with the cyclodextrin CAPTISOL® and topiramate to evaluate the extent of solubilization of the drug by the derivatized cyclodextrin.
Solutions containing increasing amounts of dissolved CAPTISOL® brand of sulfobutylether-β-cyclodextrin were prepared and added to small glass vials. Excess solid topiramate was added to each vial and the vials were capped, vortexed and placed in constant agitation for five days at room temperature (about 23° C. to about 25° C.).
After the multi-day equilibration period, the vials were centrifuged (twice at 693×g, 25° C.) and aliquots were taken from the clear supernatant solutions. The aliquots were diluted 1:3 (1:5.67 for 40% cyclodextrin CAPTISOL® solutions) with mobile phase and analyzed by HPLC for topiramate content.
• HPLC: Dionex • Detection: Refractive Index Detector • Column: SB-Phenyl (5 μm) 250 mm×4.6 mm • Column Temperature: 35° C. • Mobile Phase: 40:60 (MeOH:Water) • Flow Rate: 1.0 mL/min isocratic • Run Time: 30 minutes • Sample Solvent: Mobile phase • Injection Volume: 50 μL • Retention Time: ˜12.5 minutes Mobile Phase Preparation
For series [4] the following is noted: cited from earlier work.
In the next series the test system is AMPA-kainate receptor. To be noted: developing oligodendrocytes; similar to NBQX; cited from earlier work.
The conditions of series [5]: cited from earlier work. This is another data set of the same source.
The conditions of series [6]: administered parenterally, orally and via inhalation; compared with β-cyclodextrin; cited from earlier work.
Setting [7] is: adult patients, summary of three subjects.
Where [8] appears, read: subject TUMN1, oral dose 50 mg b.i.d.
The mark [9] stands for this setting: subject TUMN2, oral dose 100 mg q.d.
Where [10] appears, read: subject TUMN3, oral dose 25 mg b.i.d.

Consider `CC1(C)O[C@@H]2[C@@H](CO[C@@]3(COS(N)(=O)=O)OC(C)(C)O[C@@H]23)O1` [Topiramate, 2,3:4,5-di-O-isopropylidene-β-D-fructopyranose sulfamate], for which the “effect on selective hypoxic-ischemic white matter injury” value in series [1] was “protective against selective hypoxic-ischemic white matter injury”. Besides, in series [2] (setting [7]), the “distribution volume for intravenously administered topiramate” value was “approximately 0.7 L/kg” and the oral absorption result is listed as “approximately 100%”. Moreover, in series [2] (subject TUMN1), the BP changes result was “None”, the EKG changes entry is on record as “None”, the Injection site irritation entry is “None” and the Other adverse events result is listed as “None”. The Pulse changes entry in series [2] (subject TUMN1) is on record as “None”. Moreover, in series [2] (setting [8]), the “Bioavailability (fraction of oral dose absorbed, AUCoral vs AUCiso)” value came to 102%; the Clearance was determined as 1.01 L/h; the Distribution volume is 0.78 L/kg; the Half life was 30.5 h. Besides, in series [2] (subject TUMN2), the BP changes entry is “None”, the EKG changes entry is listed as “None”, the Injection site irritation entry is given as “None” and the Other adverse events entry is “None”. Moreover, the Pulse changes result in series [2] (subject TUMN2) was “None”. For the same molecule, in series [2] (setting [9]), the “Bioavailability (fraction of oral dose absorbed, AUCoral vs AUCiso)” value is given as 106%; the Clearance was 1.07 L/h; the Distribution volume is 0.68 L/kg; the Half life came to 28.4 h. For the same molecule, in series [2] (subject TUMN3), the BP changes entry is recorded as “None”, the EKG changes entry is reported as “None”, the Injection site irritation result is listed as “None” and the Pulse changes result is given as “None”. Further, the Other adverse events entry in series [2] (subject TUMN3, cell wraps: Vasovagal response during IV line placement) is “Vasovagal”. Also, in series [2] (setting [10]), the “Bioavailability (fraction of oral dose absorbed, AUCoral vs AUCiso)” value is 109%; the Clearance was found to be 1.11 L/h; the Distribution volume was 0.70 L/kg; the Half life was 38.0 h. In series [3] (in water in the absence of cyclodextrin, room temperature), the intrinsic solubility amounted to 7.86 mg/mL. Also, the phase solubility type result in series [3] (topiramate in CAPTISOL solutions in water) is listed as “Type A-linear”. In addition, the “bioavailability of an oral topiramate dose” value in series [4] (oral administration, previously found) is on record as “about 80%”. Also, the “oral dose excreted in the urine as unchanged drug” value in series [4] (oral administration) is on record as “about 70%”. For the same molecule, the “higher clearance in pediatric patients compared to adults” value in series [4] (pediatric patients vs adults) is recorded as 50%. The “effect on AMPA-kainate receptor-mediated cell death and calcium influx, kainate-evoked currents” value in the series on AMPA-kainate receptor was “attenuates”.

Turning to “sulfobutylether-β-cyclodextrin [CAPTISOL®]”, the water solubility in series [5] is recorded as over 90 g per 100 mL. Moreover, in series [6], the nephrotoxicity result is recorded as “does not exhibit the nephrotoxicity associated with β-cyclodextrin”.
